Measurements as given in patent EP0987275B1, “Molecules that home to a selected organ or tissue in vivo” (LA JOLLA CANCER RESEARCH FOUNDATION, priority 1995, dated 2008).
“And” between values parts separate entries of the source, which are not always exact repeats. Equal entries are not always repeated. Where no end group is shown, it is not given here.

Tests used:
brain [1] = assay: Specificity of brain homing of individually amplified phage (TU in brain vs kidney); type: in vivo, mice; details: individual phage, same input titer
Procedure: To determine the specificity of brain homing of the individual motifs identified, phage displaying the predominant motifs were amplified individually, diluted to the same input titer and administered to mice. Following administration, brain and kidney were removed and the number of TU of phage in each organ was determined. […] Specifically, the ratio of selective homing (brain:kidney) was about 8 for CNSRLHLRC (SEQ ID NO: 1) and for CLSSRLDAC (SEQ ID NO: 3), 4 for CENWWGDVC (SEQ ID NO: 2) and 9 for […] (SEQ ID NO: 16).

brain [2] = assay: In vivo panning of phage peptide display libraries, brain as the selected organ (kidney control); parameters: species or system mice; details: phage recovered from brain; for (% PHAGE): % of the 73 clones sequenced; for # PHAGE DISPLAYING SAME A.A. SEQUENCE: second and third rounds of in vivo panning, 73 cloned phage sequenced
Procedure: Phage display libraries were constructed using the fuse 5 vector as described by Koivunen et al. (supra, 1995; see, also, Koivunen et al. Meth. Enzymol. 245:346-369 (1994b), which is incorporated herein by reference). Six libraries encoding peptides designated CX5C (SEQ ID NO: 36), CX6C (SEQ ID NO: 37), CX7C (SEQ ID NO: 38), CX9 (SEQ ID NO: 39), X2CX14CX2 (SEQ ID NO: 40) and X2CX18 (SEQ ID NO: 41) were prepared, where "C" indicates cysteine and "XN" indicates the given number of individually selected amino acids. These libraries can display cyclic peptides when at least two cysteine residues are present in the peptide.
Oligonucleotides were constructed such that "C" was encoded by the codon TGT and "XN" was encoded by NNK, where "N" is equal molar mixtures of A, C, G and T, and where "K" is equal molar mixtures of G and T. Thus, the peptide represented by CX5C (SEQ ID NO: 36) can be represented by an oligonucleotide having the sequence TGT(NNK)5TGT (SEQ ID NO: 42). Oligonucleotides were made double stranded by 3 cycles of PCR amplification, purified and ligated to the nucleic acid encoding the gene III protein in the fuse 5 vector such that, upon expression, the peptide is present as a fusion protein at the N-terminus of the gene III protein.
The vectors were transfected by electroporation into MC1061 cells. Bacteria were cultured for 24 hr in the presence of 20 µg/ml tetracycline, then phage were collected from the supernatant by precipitation twice using polyethylene glycol. Each library contained about 5 x 10^9 to 5 x 10^14 transducing units (TU; individual recombinant phage).
(§1) A mixture of phage libraries containing 1 x 10^14 TU was diluted in 200 µl DMEM and injected into the tail vein of anesthetized BALB\c mice (2 month old females; Jackson Laboratories; Bar Harbor ME); Avertin™ (0.015 ml/g) was used as anesthetic (see Pasqualini and Ruoslahti, supra, 1996). After 1-4 minutes, mice were snap frozen in liquid nitrogen. To recover the phage, carcasses were partially thawed at room temperature for 1 hr, organs were collected and weighed, then were ground in 1 ml DMEM-PI (DMEM containing protease inhibitors (PI); phenylmethylsulfonyl fluoride (PMSF; 1 mM), aprotinin (20 µg/ml), leupeptin (1 µg/ml)).
(§2) Organ samples were washed 3 times with ice cold DMEM-PI containing 1% bovine serum albumin (BSA), then directly incubated with 1 ml K91-kan bacteria for 1 hr. Ten ml NZY medium containing […] tetracycline (NZY/tet) was added to the bacterial culture, the mixture was incubated in a 37°C shaker for 1 hr, then 200 µl aliquots were plated in agar plates containing 40 µg/ml tetracycline (tet/agar).
(§3) Individual colonies containing phage recovered from brain or kidney were grown for 16 hr in 5 ml NZY/tet. The bacterial cultures obtained from the individual colonies were pooled and the phage were purified and re-injected into mice as described above for a second round of in vivo panning. A third round of panning also was performed. Phage DNA was purified from individual bacterial colonies obtained from the second and the third round of in vivo panning and the DNA sequences encoding the peptides expressed by selected phage were determined (see Koivunen et al., supra, 1994b).
Three rounds of in vivo panning in mice were performed. Kidney was used as a control organ. Mice were injected with two different mixtures of phage libraries. The first mixture contained libraries encoding CX9 (SEQ ID NO: 39), CX5C (SEQ ID NO: 36), CX6C (SEQ ID NO: 37) and CX7C (SEQ ID NO: 38) peptides (CX5-7/CX9 mixture; SEQ ID NOS: 36-39). The second mixture contained libraries encoding X2CX14CX2 (SEQ ID NO: 40) and X2CX18 (SEQ ID NO: 41) peptides (X2CX18/X2CX14CX2 mixture; SEQ ID NOS: 40 and 41).
The phage library mixtures were administered to mice via tail vein injection. Phage input was […] of the CX5-7/CX9 (SEQ ID NOS: 36-39) mixture or 1 x 10^14 TU of the X2CX18/X2CX14CX2 (SEQ ID NOS: 40 and 41) mixture. […]

[3] = tested on: Human 435 breast carcinoma cells; assay: Competition of RGD phage tumor homing by coinjected free peptide; type: in vivo, nude mice; details: coinjection of 500 µg free peptide
Procedure: (§4) Human 435 breast carcinoma cells were inoculated into the mammary fat pad of nude mice. When the tumors attained a diameter of about 1 cm, phage expressing a specific RGD-containing peptide were administered to the tumor bearing mouse. Similar results to those discussed below also were obtained with nude mice bearing tumors formed by implantation of human melanoma C8161 cells or by implantation of mouse B16 melanoma cells.
1 x 10^9 phage expressing the RGD-containing peptide, […] (SEQ ID NO: 57; see, Koivunen et al., supra, 1995) or control (insertless) phage were injected intravenously (iv) into the mice and allowed to circulate for 4 min. The mice then were snap frozen while under anesthesia, and various organs, including tumor, brain and kidney, were removed and the phage present in the organs was quantitated (see Pasqualini and Ruoslahti, supra, 1996).

[4] = tested on: Human 435 breast carcinoma cells; assay: In vivo panning in mice bearing a human breast carcinoma tumor; parameters: species or system nude mice; details: phage recovered from human breast cancer after third round, 14 cloned phage; for # clones: CX3CX3CX3C library
Procedure: Human 435 breast carcinoma cells (Price et al., Cancer Res. 50:717-721 (1990)) were inoculated into the mammary fat pad of nude mice. When the tumors attained a diameter of about 1 cm, either a phage targeting experiment was performed, in which phage expressing a specific peptide were administered to the tumor bearing mouse, or in vivo panning was performed.
The breast tumor bearing mice were injected with 1 x 10^9 phage expressing a library of CX3CX3CX3C (SEQ ID NO: 47) peptides, where X3 indicates three groups of independently selected, random amino acids. The phage were allowed to circulate for 4 min, then the mice were anesthetized, snap frozen in liquid nitrogen while under anesthesia, and the tumor was removed. Phage were isolated from the tumor and subjected to two additional rounds of in vivo panning.
Following the third round of panning, phage were quantitated and the peptide sequences expressed by 14 different cloned phage were determined. The 14 cloned phage expressed 4 different peptides (Table 3).

kidney [5] = assay: In vivo panning of phage peptide display libraries, kidney as the selected organ (brain control); parameters: species or system mice; details: phage recovered from kidney; for (% PHAGE): % of the 48 clones sequenced; for # PHAGE DISPLAYING SAME A.A. SEQUENCE: 48 cloned phage sequenced
Procedure: as §1, §2, §3
The same methodology used to isolate phage expressing brain homing peptides was used to isolate phage expressing peptides that home to kidney. In these experiments, brain was used as the control organ. A mixture of the CX5C (SEQ ID NO: 36) and the CX6C (SEQ ID NO: 37) libraries was administered as described above. Homing of phage to the kidney was obtained and an approximately 3x to 7x enrichment of phage homing to kidney was observed following a second round of in vivo panning.
(§5) The amino acid sequences were determined for the inserts in 48 cloned phage that homed to kidney. The peptides expressed by these phage were represented by two predominant sequences, CLPVASC (SEQ ID NO: 21; 46% of the clones sequenced) and CGAREMC (SEQ ID NO: 22; 17% of the clones; see Table 2). In addition, the peptide CKGRSSAC (SEQ ID NO: 23) appeared three times and three other peptides were present twice each.

kidney [6] = assay: Selective kidney homing of individual phage (kidney vs brain); type: in vivo, mice
Procedure: as §5

[7] = tested on: B16B15b mouse melanoma cells; assay: In vivo panning in mice bearing an implanted mouse melanoma tumor; parameters: species or system nude mice; details: phage recovered from B16B15b tumors; 89 cloned phage sequenced
Procedure: Mice bearing a melanoma were produced by implantation of B16B15b mouse melanoma cells, which produce highly vascularized tumors. B16B15b mouse melanoma cells were injected subcutaneously into the mammary fat pad of nude mice (2 months old) and tumors were allowed to grow until the diameter was about 1 cm. In vivo panning was performed as disclosed above. Approximately 1 x 10^12 transducing units of phage expressing the CX5C (SEQ ID NO: 36), CX6C (SEQ ID NO: 37) or […] library were injected, iv, and allowed to circulate for 4 min. Mice then were snap frozen in liquid nitrogen while under anesthesia, tumor tissue and brain (control organ) were removed, and phage were isolated as described above. Three rounds of in vivo panning were performed.
The amino acid sequences were determined for the inserts in 89 cloned phage recovered from the B16B15b tumors. The peptides expressed by these phage were represented by two predominant sequences, CLSGSLSC (SEQ ID NO: 55; 52% of the clones sequenced) and WGTGLC (SEQ ID NO: 52; 25% of the clones; see Table 4).

melanoma = assay: Immunohistochemical staining (anti-M13) for phage localization in melanoma bearing mice; type: in vivo; details: 1 x 10^9 pfu phage iv, 4 min
Procedure: Localization of the phage expressing a tumor homing peptide in the mouse organs was examined by immunohistochemical staining of the tumor and various other tissues. 1 x 10^9 pfu of a control (insertless) phage or a phage expressing the tumor homing peptide, CLSGSLSC ([…]), were injected, iv, into tumor bearing mice and allowed to circulate for 4 min. The mouse then was perfused with DMEM and various organs, including the tumor were removed and fixed in Bouin's solution. Histologic sections were prepared and stained using anti-M13 (phage) antibodies (see Pasqualini and Ruoslahti, supra, 1996).

[8] = tested on: Human 435 breast carcinoma cells; assay: In vivo targeting of phage expressing an RGD peptide to a breast tumor; parameters: species or system nude mice; details: for RGD phage as compared to unselected control phage accumulated in the tumor: human breast carcinoma tumors
Procedure: as §4
1 x 10^9 phage expressing the RGD-containing peptide, CDCRGDCFC (SEQ ID NO: 57; see, Koivunen et al., supra, 1995) or control (insertless) phage were injected intravenously (iv) into the mice and allowed to circulate for 4 min. The mice then were snap frozen while under anesthesia, and various organs, including tumor, brain and kidney, were removed and the phage present in the organs was quantitated (see Pasqualini and Ruoslahti, supra, 1996).

brain [9] = assay: Homing of 125I-peptide/RBC complex to brain, with peptide competition; type: in vivo, mouse; details: 10 mM unlabeled peptide
Procedure: The synthetic cyclic CLSSRLDAC (SEQ ID NO: 3) peptide (1 mg) was labeled with iodine-125 using the Bolton and Hunter reagent (Amersham; Arlington Heights IL). Labeled peptide was purified by reverse phase HPLC on Sep-Pak™ cartridges (Waters, Millipore Corp.; Milford PA) and the ^125I-peptide (200 µg) was coupled to 1 ml glutaraldehyde-stabilized sheep RBC (Sigma Chemical Co.; St. Louis MO) according to the manufacturer's instructions.
Fifty µl ^125I-peptide/RBC (200,000 cpm), alone or with 10 mM of unlabeled CLSSRLDAC (SEQ ID NO: 3), which is a brain homing peptide, or CVRLNSLAC (SEQ ID NO: 43), which has no brain homing activity, was injected into the tail vein. After 2 min, each mouse was perfused through the heart with 50 ml DMEM and the brain and kidney were removed and assayed for radioactivity.

Substance: CNSRLHLRC (displayed on phage)
- ratio of selective homing (brain:kidney) (brain [1]): about 8
- (% PHAGE) (brain [2]): 21.9%
- # PHAGE DISPLAYING SAME A.A. SEQUENCE (brain [2]): 16

Substance: ACDCRGDCFCG
- reduction of the amount of RGD phage in the tumor by coinjected free peptide [3]: about tenfold

Substance: CNGRCVSGCAGRC [breast tumor homing peptide]
- % of total phage sequenced [4]: 21.4%
- # clones [4]: 3

Substance: CGRECPRLCQSSC [breast tumor homing peptide]
- % of total phage sequenced [4]: 42.9%

Substance: CKGRSSAC (cysteine pairing not given here; also: displayed on phage)
- (% PHAGE) (kidney [5]): 6.2%
- ratio of selective kidney:brain homing (kidney [6]): 2

Substance: CLPVASC (displayed on phage)
- (% PHAGE) (kidney [5]): 46% and 45.8%
- # PHAGE DISPLAYING SAME A.A. SEQUENCE (kidney [5]): 22
- ratio of selective kidney:brain homing (kidney [6]): 7

Substance: WRCVLREGPAGGCAWFNRHRL (displayed on phage)
- ratio of selective homing (brain:kidney) (brain [1]): ~9
- (% PHAGE) (brain [2]): 13.7%
- # PHAGE DISPLAYING SAME A.A. SEQUENCE (brain [2]): 10

Substance: CGLMCQGACFDVC [peptide from phage recovered from human breast cancer]
- % of total phage sequenced [4]: 7.1%
- # clones [4]: 1

Substance: CGAREMC (displayed on phage)
- (% PHAGE) (kidney [5]): 17% and 16.7%
- # PHAGE DISPLAYING SAME A.A. SEQUENCE (kidney [5]): 8
- ratio of selective kidney:brain homing (kidney [6]): 3

Substance: CLSGSLSC (not fully specified; cysteine pairing not given here; also: displayed on phage)
- # clones [7]: 46
- % of total phage [7]: 52%
- immunostaining in the liver sinusoids and in spleen (melanoma): immunostaining was detected
- immunostaining in the melanoma (melanoma): Strong immunostaining
- staining in skin or in kidney samples (melanoma): Essentially no staining

Substance: CENWWGDVC (displayed on phage)
- ratio of selective homing (brain:kidney) (brain [1]): ~4
- (% PHAGE) (brain [2]): 19% and 19.2%
- # PHAGE DISPLAYING SAME A.A. SEQUENCE (brain [2]): 14

Substance: CGEACGGQCALPC [breast tumor homing peptide]
- % of total phage sequenced [4]: 28.6%
- # clones [4]: 4

Substance: CDCRGDCFC
- phage detected in the breast tumor as compared to brain and kidney ([8]; 1 x 10^9 phage iv, 4 min): 2-3 times
- immunohistochemical staining for the phage in the tumor ([8]; breast tumors): accumulation of the RGD phage in the blood vessels within the tumor
- RGD phage as compared to unselected control phage accumulated in the tumor [8]: 80 fold
- RGD phage as compared to unselected control phage accumulated in the tumor ([8]; listed as RGD phage): twenty- to eighty-fold
- staining for the phage in brain or kidney (control organs) ([8]; mouse, in vivo): no staining

Substance: CVRLNSLAC
- effect of coadministered unlabeled peptide on brain homing of the CLSSRLDAC/RBC complex (brain [9]): no effect
- effect of coadministered unlabeled peptide on complex localizing to the kidney (brain [9]): no effect
